In patent US9624200B2, “Therapeutic piperazines” (DART NEUROSCIENCE (CAYMAN) LTD., priority 2006, dated 2017) one finds IC50 data, which are given here for 33 molecules.

The test concerns PDE4 from human U-937 cells. Nature of the test: PDE4 Inhibition Assay. The settings on record: 1 μM cAMP, [3H]-cAMP, read-out: Potency Class (Inhibitory Concentration) in the PDE4 assay. The test is classed as biochemical. How it is done:
PDE4 from human U-937 cells was used (see T. J. Torphy, et al., J. Pharmacol. Exp. Ther., 1992, 263, 1195-1205). Test compound at various concentration and/or vehicle was preincubated with 2 μg/ml enzyme in Tris-HCl buffer pH 7.5 for 15 minutes at 25° C. The reaction was initiated by addition of 1 1 μM cAMP and 0.01 1 μM [^3H]-cAMP for another 20 minute incubation period and terminated at 100° C. The resulting [^3H]-AMP was converted to [^3H]-adenosine by addition of snake venom nucleotidase and separated by AG1-X2 resin. An aliquot was removed and counted to determine the amount of [^3H]-adenosine formed. Results were converted to percent inhibition and IC so determined using XLfit from IDBS (ID Business Solutions Ltd., 2 Occam Court, Surrey Research Park, Guildford, Surrey, GU2 7QB UK).
Representative compounds of the present invention were tested and found to have significant PDE4 inhibition in this assay.
As for `COc1ccc(N2CCN(C(=O)CN3CC[C@H](O)C3)[C@@H](Cc3ccccc3)C2)cc1OC1CCCC1` [Compound 319, 1-((S)-2-benzyl-4-(3-(cyclopentyloxy)-4-methoxyphenyl)piperazin-1-yl)-2-((S)-3-hydroxypyrrolidin-1-yl)ethanone], the IC50 was in the range of 200 to 1000 nM.
As to `COc1ccc(N2CCN(C(=O)Cc3cnc[nH]3)[C@@H](Cc3ccccc3)C2)cc1OC1CCCC1` [Compound 240, (S)-1-(2-benzyl-4-(3-(cyclopentyloxy)-4-methoxyphenyl)piperazin-1-yl)-2-(1H-imidazol-5-yl)ethanone], the IC50 is below 200 nM.
Under `CCOC(=O)CC(=O)N1CCN(c2ccc(OC)c(OC3CCCC3)c2)C[C@@H]1CC(C)C` [Compound 368, (S)-ethyl 3-(4-(3-(cyclopentyloxy)-4-methoxyphenyl)-2-isobutylpiperazin-1-yl)-3-oxopropanoate] stands above 1000 nM.
Then `COc1ccc(N2CCN(CC(N)=O)[C@@H](Cc3ccccc3)C2)cc1OC1CCC1` [Compound 268, (S)-2-(2-benzyl-4-(3-cyclobutoxy-4-methoxyphenyl)piperazin-1-yl)acetamide], with below 200 nM; and `COc1ccc(N2CCN(C(C)=O)[C@@H](CN3CCOCC3)C2)cc1OC1CCCC1` [Compound 250, (S)-1-(4-(3-(cyclopentyloxy)-4-methoxyphenyl)-2-(morpholinomethyl)piperazin-1-yl)ethanone], with above 1000 nM.
For the molecule `COc1ccc(N2CCN(C(C)=O)[C@@H](CN3CCc4ccccc4C3)C2)cc1OC1CCCC1` [Compound 253, (S)-1-(4-(3-(cyclopentyloxy)-4-methoxyphenyl)-2-((3,4-dihydroisoquinolin-2(1H)-yl)methyl)piperazin-1-yl)ethanone], the IC50 is below 200 nM.
In the case of `COc1ccc(N2CCN(C(=O)Cc3c[nH]cn3)[C@@H](CC(C)C)C2)cc1OC1CCCC1` [Compound 364, (S)-1-(4-(3-(cyclopentyloxy)-4-methoxyphenyl)-2-isobutylpiperazin-1-yl)-2-(1H-imidazol-4-yl)ethanone], the IC50 is below 200 nM.
Then `COc1ccc(N2CCN(C(=O)Cc3cn(C)cn3)[C@@H](Cc3ccccc3)C2)cc1OC1CCCC1` [Compound 317, (S)-1-(2-benzyl-4-(3-(cyclopentyloxy)-4-methoxyphenyl)piperazin-1-yl)-2-(1-methyl-1H-imidazol-4-yl)ethanone], with below 200 nM; and `COc1ccc(N2CCN(Cc3cccc(O)c3)[C@@H](Cc3ccccc3)C2)cc1OC1CCCC1` [Compound 361], with above 1000 nM; and `COc1ccc(N2CCN(CCc3cnc[nH]3)[C@@H](Cc3ccccc3)C2)cc1OC1CCCC1` [Compound 242, (S)-1-(2-(1H-imidazol-5-yl)ethyl)-2-benzyl-4-(3-(cyclopentyloxy)-4-methoxyphenyl)piperazine], with above 1000 nM.
Then `COc1ccc(N2CCN(C(=O)C3(C(=O)O)CCC3)[C@@H](Cc3ccccc3)C2)cc1OC1CCC1` [Compound 315, (S)-1-(2-benzyl-4-(3-cyclobutoxy-4-methoxyphenyl)piperazine-1-carbonyl)cyclobutanecarboxylic acid], with below 200 nM; and `COc1ccc(N2CCN(C(=O)Cc3cnccn3)[C@@H](Cc3ccccc3)C2)cc1OC1CCCC1` [Compound 387, (S)-1-(2-benzyl-4-(3-(cyclopentyloxy)-4-methoxyphenyl)piperazin-1-yl)-2-(pyrazin-2-yl)ethanone], with 200 to 1000 nM.
Then `COc1ccc(N2CCN(C(=O)Cc3nc(C)n[nH]3)[C@@H](Cc3ccccc3)C2)cc1OC(C)C` [Compound 330, (S)-1-(2-benzyl-4-(3-isopropoxy-4-methoxyphenyl)piperazin-1-yl)-2-(3-methyl-1H-1,2,4-triazol-5-yl)ethanone], with below 200 nM; and `COc1ccc(N2CCN(Cc3ccc(O)cc3)[C@@H](Cc3ccccc3)C2)cc1OC1CCCC1` [Compound 362, (S)-4-((2-benzyl-4-(3-(cyclopentyloxy)-4-methoxyphenyl)piperazin-1-yl)methyl)phenol], with above 1000 nM; and `COc1ccc(N2CCN(C(=O)Cc3c[nH]cn3)[C@@H](CC(C)C)C2)cc1OC(C)C` [Compound 378, (S)-2-(1H-imidazol-4-yl)-1-(2-isobutyl-4-(3-isopropoxy-4-methoxyphenyl)piperazin-1-yl)ethanone], with 200 to 1000 nM.
For the molecule `CCc1nn(C(C)C)c2cc(N3CCN(CC(N)=O)[C@@H](Cc4ccccc4)C3)ccc12` [Compound 383, (S)-2-(2-benzyl-4-(3-ethyl-1-isopropyl-1H-indazol-6-yl)piperazin-1-yl)acetamide], the IC50 was above 1000 nM.
Consider `COc1ccc(N2CCN(C(=O)Cc3cc[nH]c3)[C@@H](Cc3ccccc3)C2)cc1OC1CCCC1` [Compound 307, (S)-1-(2-benzyl-4-(3-(cyclopentyloxy)-4-methoxyphenyl)piperazin-1-yl)-2-(1H-pyrrol-3-yl)ethanone], for which the IC50 was below 200 nM.
Under `COc1ccc(N2CCN(CC(=O)O)[C@@H](Cc3ccccc3)C2)cc1OC(C)C` [Compound 266] stands 200 to 1000 nM; under `COc1ccc(N2CCN(C(=O)CN)[C@@H](Cc3ccccc3)C2)cc1OC1CCC1` [Compound 349, (S)-2-amino-1-(2-benzyl-4-(3-cyclobutoxy-4-methoxyphenyl)piperazin-1-yl)ethanone], above 1000 nM; under `O=C(Cc1ncccn1)N1CCN(c2ccc(OC(F)F)c(OC3CCC3)c2)C[C@@H]1Cc1ccccc1` [Compound 356, (S)-1-(2-benzyl-4-(3-cyclobutoxy-4-(difluoromethoxy)phenyl)piperazin-1-yl)-2-(pyrimidin-2-yl)ethanone], 200 to 1000 nM.
Then `Cc1nc(CC(=O)N2CCN(c3ccc(OC(F)F)c(OC4CCCC4)c3)C[C@@H]2CC(C)C)n[nH]1` [Compound 374, (S)-1-(4-(3-(cyclopentyloxy)-4-(difluoromethoxy)phenyl)-2-isobutylpiperazin-1-yl)-2-(5-methyl-1H-1,2,4-triazol-3-yl)ethanone], with below 200 nM.
Under `NC(=O)CN1CCN(c2ccc(OC(F)F)c(OC3CCC3)c2)C[C@@H]1Cc1ccccc1` [Compound 273, (S)-2-(2-benzyl-4-(3-cyclobutoxy-4-(difluoromethoxy)phenyl)piperazin-1-yl)acetamide] stands below 200 nM; under `COc1ccc(N2CCN(C(=O)Cc3c[nH]cn3)[C@@H](CC(C)C)C2)cc1OC1CCC1` [Compound 367, (S)-1-(4-(3-cyclobutoxy-4-methoxyphenyl)-2-isobutylpiperazin-1-yl)-2-(1H-imidazol-4-yl)ethanone], below 200 nM.
As for `CC(C)C[C@H]1CN(c2ccc(OC(F)F)c(OCC3CC3)c2)CCN1C(=O)Cc1c[nH]cn1` [Compound 365, (S)-1-(4-(3-(cyclopropylmethoxy)-4-(difluoromethoxy)phenyl)-2-isobutylpiperazin-1-yl)-2-(1H-imidazol-4-yl)ethanone], the IC50 fell in the range of 200 to 1000 nM.
Under `COc1ccc(N2CCN(C(=O)Cc3n[nH]c([N+](=O)[O-])n3)[C@@H](Cc3ccccc3)C2)cc1OC1CCC1` [Compound 338, (S)-1-(2-benzyl-4-(3-cyclobutoxy-4-methoxyphenyl)piperazin-1-yl)-2-(5-nitro-1H-1,2,4-triazol-3-yl)ethanone] stands 200 to 1000 nM.
Then `CCc1nn(C2CCC2)c2cc(N3CCN(CC(N)=O)[C@@H](Cc4ccccc4)C3)ccc12` [Compound 275, (S)-2-(2-benzyl-4-(1-cyclobutyl-3-ethyl-1H-indazol-6-yl)piperazin-1-yl)acetamide], with above 1000 nM; and `COc1ccc(N2CCN(C(=O)CC(N)=O)[C@@H](Cc3ccccc3)C2)cc1OC1CCC1` [Compound 261, (S)-3-(2-benzyl-4-(3-cyclobutoxy-4-methoxyphenyl)piperazin-1-yl)-3-oxopropanamide], with below 200 nM.
In the case of `COc1ccc(N2CCN(C(=O)[C@@H]3CNC(=O)N3)[C@@H](Cc3ccccc3)C2)cc1OC1CCCC1` [Compound 292, (S)-4-((S)-2-benzyl-4-(3-(cyclopentyloxy)-4-methoxyphenyl)piperazine-1-carbonyl)imidazolidin-2-one], the IC50 is below 200 nM.
Under `CCC(=O)N1CCN(c2ccc(OC)c(OC3CCCC3)c2)C[C@@H]1Cc1ccccc1` [Compound 244, (S)-1-(2-benzyl-4-(3-(cyclopentyloxy)-4-methoxyphenyl)piperazin-1-yl)propan-1-one] stands 200 to 1000 nM; under `COc1ccc(N2CCN(C(C)=O)[C@@H](Cc3cccc(C)c3)C2)cc1OC1CCCC1` [Compound 248, (S)-1-(4-(3-(cyclopentyloxy)-4-methoxyphenyl)-2-(3-methylbenzyl)piperazin-1-yl)ethanone], below 200 nM.
Under `COc1ccc(N2CCN(C(=O)Cc3c[nH]cn3)[C@@H](Cc3ccccc3)C2)cc1OC1CCC1` [Compound 303, (S)-1-(2-benzyl-4-(3-cyclobutoxy-4-methoxyphenyl)piperazin-1-yl)-2-(1H-imidazol-4-yl)ethanone] stands below 200 nM; under `COc1ccc(N2CCN(C(=O)c3c[nH]c(=O)[nH]3)[C@@H](Cc3ccccc3)C2)cc1OC1CCCC1` [Compound 288, (S)-4-(2-benzyl-4-(3-(cyclopentyloxy)-4-methoxyphenyl)piperazine-1-carbonyl)-1H-imidazol-2(3H)-one], 200 to 1000 nM; under `CCc1nn(C2CCC2)c2cc(N3CCN(C(=O)CC(N)=O)[C@@H](Cc4ccccc4)C3)ccc12` [Compound 264, (S)-3-(2-benzyl-4-(1-cyclobutyl-3-ethyl-1H-indazol-6-yl)piperazin-1-yl)-3-oxopropanamide], below 200 nM.
